What was measured:
HCT116 MTAP null cells = test: HCT116 MTAP null cell proliferation / viability (CellTiter-Glo, 6 days); type: cell-based; conditions: HCT116-MTAP null, 144 h, HCT116 MTAP null cells, 6 days, CellTiter-Glo; read-out: HCT-116 MTAP null IC50
Summary of the method: (§1)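 Viability read by CellTiter-Glo after 6-day compound exposure of MTAP-null and wild-type HCT116 cells grown in RPMI 1640 with 10% FBS. Dosing used 1:3 steps from 1 or 10 μM (8-9 points) or 1:2 steps from 10 or 50 μM (22 points); IC50 taken where fitted curve crosses 50% of control.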

HCT116 WT cells = test: HCT116 WT cell proliferation / viability (CellTiter-Glo, 6 days); type: cell-based; conditions: Homo sapiens, HCT-116, 144 h, HCT116 WT cells, 6 days, CellTiter-Glo; read-out: HCT-116 WT IC50
Summary of the method: as §1

SMILES | IC50 (HCT116 MTAP null cells) [nM] | IC50 (HCT116 WT cells) [nM]
Nc1nc2cc(F)c(C(=O)N(Cc3ccc(C(F)(F)F)cn3)C3CC3)cc2c2c1cnn2CC(F)(F)F [Example 570, 4-amino-N-cyclopropyl-7-fluoro-1-(2,2,2-trifluoroethyl)-N-((5-(trifluoromethyl)-2-pyridinyl)methyl)-1H-pyrazolo[4,3-c]quinoline-8-carboxamide] | 757 | 329
CN(Cc1ccc(C(F)(F)F)nn1)C(=O)c1cc2c(cc1F)nc(N)c1cnn(C)c12 [Example 571, 4-amino-7-fluoro-N,1-dimethyl-N-((6-(trifluoromethyl)-3-pyridazinyl)methyl)-1H-pyrazolo[4,3-c]quinoline-8-carboxamide] | 71 | 4930
CN(Cc1ccc(C(F)(F)F)cn1)C(=O)c1cc2c3c(c(N)nc2cc1C(F)(F)F)COC3 [Example 572, 4-amino-N-methyl-7-(trifluoromethyl)-N-((5-(trifluoromethyl)-2-pyridinyl)methyl)-1,3-dihydrofuro[3,4-c]quinoline-8-carboxamide] | 939 | > 50000
CN(Cc1ccc(S(F)(F)(F)(F)F)cc1)C(=O)c1ccc2nc(N)c3cnn(C)c3c2c1 [Example 573, 4-amino-N,1-dimethyl-N-(4-(pentafluoro-lambda~6~- sulfanyl)benzyl)-1H-pyrazolo[4,3-c]quinoline-8-carboxamide] | 85 | 3730
CN(Cc1ccc(S(F)(F)(F)(F)F)cc1)C(=O)c1cc2c(cn1)nc(N)c1cnn(C)c12 [Example 574, 4-amino-N,1-dimethyl-N-(4-(pentafluoro-lambda~6~- sulfanyl)benzyl)-1H-pyrazolo[4,3-c][1,7]naphthyridine-8-carboxamide] | 25 | 878
CN(Cc1ccc(S(F)(F)(F)(F)F)cc1)C(=O)c1cc2c(cc1F)nc(N)c1cnn(C)c12 [Example 575, 4-amino-7-fluoro-N,1-dimethyl-N-(4-(pentafluoro-lambda~6~- sulfanyl)benzyl)-1H-pyrazolo[4,3-c]quinoline-8-carboxamide] | 12 | 354
CN(Cc1ccc(S(F)(F)(F)(F)F)cc1O)C(=O)c1cc2c3c(c(N)nc2cc1F)COC3 [Example 576, 4-amino-7-fluoro-N-(2-hydroxy-4-(pentafluoro-lambda~6~- sulfanyl)benzyl)-N-methyl-1,3-dihydrofuro[3,4-c]quinoline-8-carboxamide] | 107 | 2080
C[C@H](c1ccc(F)cn1)N(C)C(=O)c1cc2c(cc1Cl)nc(N)c1cnn(C)c12 [Example 593, 4-amino-7-chloro-N-((1R)-1-(5-fluoro-2-pyridinyl)ethyl)-N,1-dimethyl-1H-pyrazolo[4,3-c]quinoline-8-carboxamide] | 12 | 908
C[C@H](c1ncccn1)N(Cc1ccc(C#N)cn1)C(=O)c1cc2c3c(c(N)nc2cn1)COC3 [Example 606, (R)-4-amino-N-((5-cyanopyridin-2-yl)methyl)-N-(1-(pyrimidin-2-yl)ethyl)-1,3-dihydrofuro[3,4-c][1,7]naphthyridine-8-carboxamide] | 263 | 3700
CC(C)CN(Cc1ccc(C(F)(F)F)cn1)C(=O)c1cnc2nc(N)c3c(c2c1)CCC3 [Example 607, 6-amino-N-isobutyl-N-((5-(trifluoromethyl)pyridin-2-yl)methyl)-8,9-dihydro-7H-cyclopenta[c][1,8]naphthyridine-2-carboxamide] | 154 | 1370
C[C@H](c1ncccn1)N(Cc1ccc(C(F)(F)F)cn1)C(=O)c1ccc2nc(N)c3c(c2c1)CCC3 [Example 610, 4-amino-N-((1R)-1-(2-pyrimidinyl)ethyl)-N-((5-(trifluoromethyl)-2-pyridinyl)methyl)-2,3-dihydro-1H-cyclopenta[c]quinoline-8-carboxamide] | 6 | 135
CC(C)CN(Cc1ccc(C(F)(F)F)cn1)C(=O)c1ccc2nc(N)c3c(c2c1)CCC3 [Example 611, 4-amino-N-(2-methylpropyl)-N-((5-(trifluoromethyl)-2-pyridinyl)methyl)-2,3-dihydro-1H-cyclopenta[c]quinoline-8-carboxamide] | 84 | 474
CC(C)CN(Cc1ccc(C(F)(F)F)cn1)C(=O)c1cnc2nc(N)c3c(c2c1)COC3 [Example 612, 4-amino-N-(2-methylpropyl)-N-((5-(trifluoromethyl)-2-pyridinyl)methyl)-1,3-dihydrofuro[3,4-c][1,8]naphthyridine-8-carboxamide] | 176 | 3060
CC(C)CN(Cc1ccc(C(F)(F)F)cn1)C(=O)c1ccc2nc(N)c3c(c2c1)COC3 [Example 613, 4-amino-N-(2-methylpropyl)-N-((5-(trifluoromethyl)-2-pyridinyl)methyl)-1,3-dihydrofuro[3,4-c]quinoline-8-carboxamide] | 23 | 761
C[C@H](c1ncccn1)N(Cc1ccc(C(F)(F)F)cn1)C(=O)c1cnc2nc(N)c3c(c2c1)COC3 [Example 614, 4-amino-N-((1R)-1-(2-pyrimidinyl)ethyl)-N-((5-(trifluoromethyl)-2-pyridinyl)methyl)-1,3-dihydrofuro[3,4-c][1,8]naphthyridine-8-carboxamide] | 42 | 255
C[C@H](c1ncccn1)N(Cc1ccc(C#N)cn1)C(=O)c1ccc2nc(N)c3c(c2c1)CCC3 [Example 615, 4-amino-N-((5-cyano-2-pyridinyl)methyl)-N-((1R)-1-(2-pyrimidinyl)ethyl)-2,3-dihydro-1H-cyclopenta[c]quinoline-8-carboxamide] | 19 | 271
Cc1noc2c1c(N)nc1ccc(C(=O)N(Cc3ccc(C(F)(F)F)cn3)CC(C)C)cc12 [Example 617, 4-amino-3-methyl-N-(2-methylpropyl)-N-((5-(trifluoromethyl)-2-pyridinyl)methyl)[1,2]oxazolo[4,5-c]quinoline-8-carboxamide] | 245 | > 10000

The remaining lines, values ahead:

IC50 (HCT116 MTAP null cells) [nM] | IC50 (HCT116 WT cells) [nM] | SMILES
77 | 3560 | CC(C)CN(Cc1ccc(C(F)(F)F)cn1)C(=O)c1cc2c3c(c(N)nc2cn1)COC3 [Example 620, 4-amino-N-(2-methylpropyl)-N-((5-(trifluoromethyl)-2-pyridinyl)methyl)-1,3-dihydrofuro[3,4-c][1,7]naphthyridine-8-carboxamide]
108 | 1230 | C[C@H](c1ncccn1)N(Cc1ccc(C(F)(F)F)cn1)C(=O)c1cc2c3c(c(N)nc2cn1)COC3 [Example 621, 4-amino-N-((1R)-1-(2-pyrimidinyl)ethyl)-N-((5-(trifluoromethyl)-2-pyridinyl)methyl)-1,3-dihydrofuro[3,4-c][1,7]naphthyridine-8-carboxamide]
11 | 156 | C[C@H](c1ncccn1)N(Cc1ccc(Cl)cn1)C(=O)c1ccc2nc(N)c3c(c2c1)CCC3 [Example 622, 4-amino-N-((5-chloro-2-pyridinyl)methyl)-N-((1R)-1-(2-pyrimidinyl)ethyl)-2,3-dihydro-1H-cyclopenta[c]quinoline-8-carboxamide]
15 | 148 | C[C@H](c1ncccn1)N(Cc1ccc(C(F)F)cn1)C(=O)c1ccc2nc(N)c3c(c2c1)CCC3 [Example 623, 4-amino-N-((5-(difluoromethyl)-2-pyridinyl)methyl)-N-((1R)-1-(2-pyrimidinyl)ethyl)-2,3-dihydro-1H-cyclopenta[c]quinoline-8-carboxamide]
21 | 189 | C[C@H](c1ncccc1F)N(Cc1ccc(Br)nn1)C(=O)c1ccc2nc(N)c3c(c2c1)CCC3 [Example 624, 4-amino-N-((6-bromo-3-pyridazinyl)methyl)-N-((1R)-1-(3-fluoro-2-pyridinyl)ethyl)-2,3-dihydro-1H-cyclopenta[c]quinoline-8-carboxamide]
130 | 1590 | C[C@H](c1ncccn1)N(Cc1ccc(C(F)F)cn1)C(=O)c1cnc2nc(N)c3c(c2c1)CCC3 [Example 625, 6-amino-N-((5-(difluoromethyl)-2-pyridinyl)methyl)-N-((1R)-1-(2-pyrimidinyl)ethyl)-8,9-dihydro-7H-cyclopenta[c][1,8]naphthyridine-2-carboxamide]
43 | 444 | C[C@H](c1ncccn1)N(Cc1ccc(C(F)(F)F)cn1)C(=O)c1cnc2nc(N)c3c(c2c1)CCC3 [Example 626, 6-amino-N-((1R)-1-(2-pyrimidinyl)ethyl)-N-((5-(trifluoromethyl)-2-pyridinyl)methyl)-8,9-dihydro-7H-cyclopenta[c][1,8]naphthyridine-2-carboxamide]
45 | 583 | C[C@H](c1ncccn1)N(Cc1ccc(Cl)cn1)C(=O)c1cnc2nc(N)c3c(c2c1)CCC3 [Example 627, 6-amino-N-((5-chloro-2-pyridinyl)methyl)-N-((1R)-1-(2-pyrimidinyl)ethyl)-8,9-dihydro-7H-cyclopenta[c][1,8]naphthyridine-2-carboxamide]
119 | 1190 | C[C@H](c1ncccc1F)N(Cc1ccc(C(F)(F)F)nn1)C(=O)c1cnc2nc(N)c3c(c2c1)CCC3 [Example 628, 6-amino-N-((1R)-1-(3-fluoro-2-pyridinyl)ethyl)-N-((6-(trifluoromethyl)-3-pyridazinyl)methyl)-8,9-dihydro-7H-cyclopenta[c][1,8]naphthyridine-2-carboxamide]
16 | 398 | C[C@H](c1ncccn1)N(Cc1ccc(C(F)(F)F)cn1)C(=O)c1ccc2nc(N)c3ccccc3c2c1 [Example 629, 6-amino-N-((1R)-1-(2-pyrimidinyl)ethyl)-N-((5-(trifluoromethyl)-2-pyridinyl)methyl)-2-phenanthridinecarboxamide]
